Reference: patent US9758492B2, “IDO inhibitors” (Bristol-Myers Squibb Company, priority 2013, dated 2017)

Target: IDO (Homo sapiens, UniProt P14902)
Assay: LLE_IDO_ABS_DR (IDO assay)

Sequence of IDO (P14902 whole entry): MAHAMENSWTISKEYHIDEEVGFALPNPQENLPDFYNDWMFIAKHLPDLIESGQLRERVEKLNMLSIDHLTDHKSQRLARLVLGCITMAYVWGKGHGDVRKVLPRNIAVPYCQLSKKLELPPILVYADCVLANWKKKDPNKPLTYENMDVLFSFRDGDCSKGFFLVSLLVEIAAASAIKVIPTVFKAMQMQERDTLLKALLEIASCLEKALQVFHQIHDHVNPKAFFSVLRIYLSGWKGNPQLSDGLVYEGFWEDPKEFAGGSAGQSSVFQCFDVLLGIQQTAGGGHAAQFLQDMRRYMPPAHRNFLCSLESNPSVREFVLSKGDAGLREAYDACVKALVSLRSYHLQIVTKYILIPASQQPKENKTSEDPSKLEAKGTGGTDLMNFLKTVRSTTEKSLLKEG

| SMILES | IC50 [nM] |
| --- | --- |
| COc1ccc(C(=O)O)c(-c2ccc(N(CC(C)C)CC(C)C)c(NC(=O)Nc3ccc(C)cc3)c2)c1 [Example 128, 4′-(diisobutylamino)-5-methoxy-3′-(3-p-tolylureido)biphenyl-2-carboxylic acid] | 390 |
| Cc1ccc(NC(=O)Nc2cc(-c3ccccc3-c3nnn[nH]3)ccc2N(Cc2ccccc2)CC(C)C)cc1 [Example 289, 1-(4-(Benzyl(isobutyl)amino)-2′-(1H-tetrazol-5-yl)-[1,1′-biphenyl]-3-yl)-3-(p-tolyl)urea] | 1210 |
| CC(C)CN(CCC1CC1)c1ccc(-c2sccc2C(=O)O)cc1NC(=O)Nc1ccccc1F [Example 136, 2-(4-((2-cyclopropylethyl) (isobutyl)amino)-3-(3-(2-fluorophenyl)ureido)phenyl)thiophene-3-carboxylic acid] | 70 |
| Cc1ccc(NC(=O)Nc2cc(-c3ccccc3-c3nnn[nH]3)ccc2N2CCC(c3ccccc3)C2)cn1 (racemic) [Example 368, (±)-1-(6-Methylpyridin-3-yl)-3-(4-(3-phenylpyrrolidin-1-yl)-2′-(1H-tetrazol-5-yl)-[1,1′-biphenyl]-3-yl)urea] | 2500 |
| Cc1ccccc1NC(=O)Nc1cc(-c2cccc(F)c2C(=O)O)ccc1N(CC(C)C)CC(C)C [Example 69, 4′-(diisobutylamino)-3-fluoro-3′-(3-o-tolylureido)biphenyl-2-carboxylic acid] | 890 |
| CC(C)CN(CC(C)C)c1ccc(-c2ccccc2-c2nnn[nH]2)cc1NC(=O)Nc1cccc2cnccc12 [Example 247, 1-(4-(diisobutylamino)-2′-(1H-tetrazol-5-yl)-[1,1′-biphenyl]-3-yl)-3-(isoquinolin-5-yl)urea] | 2760 |
| COc1cc(NC(=O)Nc2cc(-c3ccccc3-c3nnn[nH]3)ccc2N(CC(C)C)CC(C)C)ccc1C#N [Example 261, 1-(4-cyano-3-methoxyphenyl)-3-(4-(diisobutylamino)-2′-(1H-tetrazol-5-yl)-[1,1′-biphenyl]-3-yl)urea] | 4310 |
| CC(C)CN(CC(C)C)c1ccc(-c2ccccc2-c2nnn[nH]2)cc1NC(=O)Nc1ccc(F)cc1OC(C)C [Example 272, 1-(4-(diisobutylamino)-2′-(1H-tetrazol-5-yl)-[1,1′-biphenyl]-3-yl)-3-(4-fluoro-2-isopropoxyphenyl)urea] | 2720 |
| CCn1nc(C)c(-c2ccc(N(CC(C)C)CC(C)C)c(NC(=O)Nc3ccc(C)cc3)c2)c1C(=O)O [Example 102, 4-(4-(diisobutylamino)-3-(3-p-tolylureido)phenyl)-1-ethyl-3-methyl-1H-pyrazole-5-carboxylic acid] | 210 |
| Cc1cc(NC(=O)Nc2cc(-c3ccccc3-c3nnn[nH]3)ccc2N2CCC(c3ccccc3)C2)on1 (racemic) [Example 372, (±)-1-(3-Methylisoxazol-5-yl)-3-(4-(3-phenylpyrrolidin-1-yl)-2′-(1H-tetrazol-5-yl)-[1,1′-biphenyl]-3-yl)urea] | 1940 |
| CC(C)CN(CC(C)C)c1ccc(-c2ccc(F)cc2C(=O)O)cc1NC(=O)Nc1ccccc1Cl [Example 68, 3′-(3-(2-chlorophenyl)ureido)-4′-(diisobutylamino)-4-fluorobiphenyl-2-carboxylic acid] | 560 |
| COc1ccc(-c2ccc(N(CC(C)C)CC(C)C)c(NC(=O)Nc3ccc(C)cc3)c2)c(-c2nnn[nH]2)c1 [Example 117, 1-(4-(diisobutylamino)-4′-methoxy-2′-(1H-tetrazol-5-yl)biphenyl-3-yl)-3-p-tolylurea] | 10 |
| Cc1ccc(NC(=O)Nc2cc(-c3ccccc3-c3nnn[nH]3)ccc2N2CCCc3ccccc32)cn1 [Example 362, 1-(4-(3,4-Dihydroquinolin-1(2H)-yl)-2′-(1H-tetrazol-5-yl)-[1,1′-biphenyl]-3-yl)-3-(6-methylpyridin-3-yl)urea] | 5490 |
| CCCCN(c1ccc(-c2cc(F)ccc2C(=O)O)cc1NC(=O)Nc1ccc(C)cc1)C1CCCCC1 [Example 178, 4′-(butyl(cyclohexyl)amino)-5-fluoro-3′-(3-(p-tolyl)ureido)-[1,1′-biphenyl]-2-carboxylic acid] | 5.49 |
| CCCCN(c1ccc(-c2ccccc2C(=O)O)cc1NC(=O)Nc1ccc(C)cc1)C1CCCCC1 [Example 177, 4′-(butyl(cyclohexyl)amino)-3′-(3-(p-tolyl)ureido)-[1,1′-biphenyl]-2-carboxylic acid] | 9.59 |
| O=C(Nc1ccc(OC(F)(F)F)cc1)Nc1cc(-c2ccccc2-c2nnn[nH]2)ccc1N1CC2CC1CN2Cc1ccccc1 (centres unmarked) [Example 318, 1-(4-(5-benzyl-2,5-diazabicyclo[2.2.1]heptan-2-yl)-2′-(1H-tetrazol-5-yl)-[1,1′-biphenyl]-3-yl)-3-(4-(trifluoromethoxy)phenyl)urea] | 120 |
| CCN(CC(C)(C)C)c1ccc(-c2ccccc2-c2nnn[nH]2)cc1NC(=O)Nc1ccccc1F [Example 112, 1-(4-(ethyl(neopentyl)amino)-2′-(1H-tetrazol-5-yl)biphenyl-3-yl)-3-(2-fluorophenyl)urea] | 30 |
| CCN(CC(C)(C)C)c1ccc(-c2ccccc2C(=O)O)cc1NC(=O)Nc1ccccc1F [Example 108, 4′-(ethyl(neopentyl)amino)-3′-(3-(2-fluorophenyl)ureido) biphenyl-2-carboxylic acid] | 250 |
| CC(C)CN(CC(C)C)c1ccc(-c2ccccc2-c2nnn[nH]2)cc1NC(=O)Nc1ccc(S(C)(=O)=O)cc1F [Example 284, 1-(4-(diisobutylamino)-2′-(1H-tetrazol-5-yl)-[1,1′-biphenyl]-3-yl)-3-(2-fluoro-4-(methylsulfonyl)phenyl)urea] | 2090 |
| Cc1ccc(NC(=O)Nc2cc(-c3cc(F)ccc3C(=O)O)ccc2N(CC(C)C)CC(F)(F)F)cc1 [Example 476] | 140 |
| CC(C)CN(CC(C)C)c1ccc(-c2ccccc2-c2nnn[nH]2)cc1NC(=O)Nc1nncs1 [Example 145, 1-(4-(diisobutylamino)-2′-(1H-tetrazol-5-yl)biphenyl-3-yl)-3-(1,3,4-thiadiazol-2-yl)urea] | 80 |
| [2H]C([2H])(C(C)C)N(c1ccc(-c2ccccc2-c2nnn[nH]2)cc1NC(=O)Nc1ccc(C)cc1)C1CCCCC1 [Example 29, 1-(4-(Cyclohexyl(1,1-dideutero-2-methylpropyl)amino)-2′-(1H-tetrazol-5-yl)biphenyl-3-yl)-3-p-tolylurea] | 4.76 |
| Cc1ccc(NC(=O)Nc2cc(-c3ccccc3C(=O)O)c(F)cc2N(CC(C)C)C2CCCCC2)cc1 [Example 225] | 2.52 |
| C#Cc1cccc(NC(=O)Nc2cc(-c3ccccc3-c3nnn[nH]3)ccc2N(CC(C)C)CC(C)C)c1 [Example 241, 1-(4-(diisobutylamino)-2′-(1H-tetrazol-5-yl)-[1,1′-biphenyl]-3-yl)-3-(3-ethynylphenyl)urea] | 20 |
| CCCCN(CCCC)c1ccc(-c2sccc2C(=O)O)cc1NC(=O)Nc1ccc(C)cc1 [Example 91, 2-(4-(dibutylamino)-3-(3-p-tolylureido)phenyl)thiophene-3-carboxylic acid] | 60 |
| Cc1ccc(NC(=O)Nc2cc(-c3ccccc3C(=O)O)ccc2N(CC(C)C)CC2CCC2)cc1 [Example 100, 4′-((cyclobutylmethyl) (isobutyl)amino)-3′-(3-p-tolylureido)biphenyl-2-carboxylic acid] | 90 |
